How the values were obtained:
gut motility in the rat = test: Charcoal propulsion test of GI motility in the rat; format: in vivo; conditions: oral
Description: Test treatments were administered to groups of up to 10 rats fasted overnight prior to the test.
Test treatments were administered orally 60 minutes prior to a 2.0 mL oral dose of a 10% suspension of charcoal in 5% gum arabic. Thirty minutes after dosing with charcoal, the rats were sacrificed and the entire gastro-intestinal tract quickly and carefully removed. The distance the charcoal meal had traveled from the pyloric sphincter toward the caecum was measured and expressed as a percentage of both the total gut length and the length of the small intestine.

[1] = Plasma pharmacokinetics of meptazinol dicarboxylate linked prodrugs after oral gavage to cynomolgus monkeys; format: in vivo, cynomolgus monkey; conditions: 1 mg meptazinol base equivalents/kg
[2] = Plasma pharmacokinetics of meptazinol dicarboxylate linked prodrugs after oral gavage to dogs; format: in vivo, dog; conditions: 1 mg meptazinol base equivalents/kg; for Dog Cmax (plasma prodrug levels, in brackets) / Cmax: prodrug level, BLQ = below 0.5 ng/mL; for Cmax: beagle, plasma, read-out: Dog Cmax (plasma prodrug levels, in brackets)
[3] = Comparative oral bioavailability of oxycodone from various dicarboxylate bridged amino acid prodrugs in dogs (nine-way crossover); format: in vivo, dog; conditions: 1 mg/kg oxycodone free base; for Cmax of oxycodone / T50% Cmax of oxycodone / AUC0-t of oxycodone: mean (±sd); for AUC0-t of oxycodone: t = last quantifiable time point
[4] = In vitro stability of dicarboxylate amino acid ester prodrugs in simulated gastric and intestinal juice, distilled water and pH 10 buffer (HPLC); conditions: for Simulated gastric fluid (pH 1.1): % remaining after 2 h/37° C.: pH 1.1, 2 h; for Distilled water (pH 5.9): % remaining after 2 h/20° C.: pH 5.9, 2 h; for Simulated intestinal fluid (pH 6.8): % remaining after 2 h/37° C.: pH 6.8, 2 h; for pH 10.0 buffer: % remaining after 2 h/20° C.: pH 10.0, 2 h
[5] = cynomolgus monkey, oral gavage of prodrug, prodrug level, BLQ = below 0.5 ng/mL

Structure (SMILES) | F % (absolute oral bioavailability of oxycodone) [3] | Cmax of oxycodone [3] | T50% Cmax of oxycodone [3] | AUC0-t of oxycodone [3] | Simulated gastric fluid (pH 1.1): % remaining after 2 h/37° C. [4] | Distilled water (pH 5.9): % remaining after 2 h/20° C. [4] | Simulated intestinal fluid (pH 6.8): % remaining after 2 h/37° C. [4] | pH 10.0 buffer: % remaining after 2 h/20° C. [4] | also measured
COc1ccc2c3c1O[C@H]1[C@@H](O)C=C[C@H]4[C@@H](C2)N(C)CC[C@@]341 [Codeine phosphate hemihydrate] |  |  |  |  |  |  |  |  | % change from vehicle-treated animals, small intestine (gut motility in the rat; 10 mg/kg): −22.0%; % change from vehicle-treated animals, total gut length (gut motility in the rat; 10 mg/kg): −21.7%; % change from vehicle-treated animals, small intestine (gut motility in the rat; 30 mg/kg): −32.1%; % change from vehicle-treated animals, total gut length (gut motility in the rat; 30 mg/kg): −32.0%; % change from vehicle-treated animals, small intestine (gut motility in the rat; 100 mg/kg): −35.1%; % change from vehicle-treated animals, total gut length (gut motility in the rat; 100 mg/kg): −34.9%
COc1ccc2c3c1O[C@H]1[C@@H](O)CC[C@H]4[C@@H](C2)N(C)CC[C@@]341.O=C(O)C(O)C(O)C(=O)O [Dihydrocodeine Hydrogen Tartrate, reference compound] |  |  |  |  |  |  |  |  | % change from vehicle-treated animals, small intestine (gut motility in the rat; 10 mg/kg): −17.6%; % change from vehicle-treated animals, total gut length (gut motility in the rat; 10 mg/kg): −16.3%; % change from vehicle-treated animals, small intestine (gut motility in the rat; 30 mg/kg): −29.8%; % change from vehicle-treated animals, total gut length (gut motility in the rat; 30 mg/kg): −30.5%; % change from vehicle-treated animals, small intestine (gut motility in the rat; 100 mg/kg): −56.4%; % change from vehicle-treated animals, total gut length (gut motility in the rat; 100 mg/kg): −57.0%; % change from vehicle-treated animals, small intestine (gut motility in the rat; 300 mg/kg): −67.7%; % change from vehicle-treated animals, total gut length (gut motility in the rat; 300 mg/kg): −68.0%
CCC1(c2cccc(OC(=O)CCCC(=O)N[C@H](C(=O)O)C(C)C)c2)CCCCN(C)C1 (stereo partly drawn) [Meptazinol [glutaryl-(S)-valine] ester] |  |  |  |  |  |  |  |  | improvement in systemic levels of meptazinol ([1]; monkey, oral gavage): not seen in the monkey; systemic levels of meptazinol versus expected Cmax after the drug itself ([2]; dog, oral gavage): improved systemic levels of meptazinol; Dog Cmax (plasma prodrug levels, in brackets) ([2]; dog, oral gavage of prodrug): 2.8 ng/mL
CCC1(c2cccc(OC(=O)/C=C\C(=O)N[C@@H](Cc3ccccc3)C(=O)O)c2)CCCCN(C)C1 (stereo partly drawn) [Meptazinol [malearyl-(S)-phenylanine] ester] |  |  |  |  |  |  |  |  | Dog Cmax (plasma prodrug levels, in brackets) ([2]; dog, oral gavage of prodrug): 1.7 ng/mL
CCC1(c2cccc(OC(=O)/C=C\C(=O)N[C@H](C(=O)O)C(C)C)c2)CCCCN(C)C1 (stereo partly drawn) [Meptazinol [malearyl-(S)-valine] ester] |  |  |  |  |  |  |  |  | Monkey Cmax (plasma prodrug levels, in brackets) [1, 5]: BLQ; Cmax ([2]; dog, oral gavage of prodrug): 6 ng/mL
CCC1(c2cccc(OC(=O)CC(=O)NC(C(=O)O)C(C)C)c2)CCCCN(C)C1 [Meptazinol [malonyl-(S)-valine] ester] |  |  |  |  |  |  |  |  | Dog Cmax (plasma prodrug levels, in brackets) ([2]; dog, oral gavage of prodrug): 44 ng/mL
CCC1(c2cccc(OC(=O)CC(=O)Nc3ccc(C(=O)O)cc3)c2)CCCCN(C)C1 (stereo not shown) [Meptazinol [malonyl-PABA] ester] |  |  |  |  |  |  |  |  | Dog Cmax (plasma meptazinol) ([2]; dog, oral gavage of prodrug, meptazinol level): 2.1 ng/mL
CCC1(c2cccc(OC(=O)CC(C)(C)CC(=O)N[C@H](C(=O)O)C(C)C)c2)CCCCN(C)C1 (stereo partly drawn) [Meptazinol-[3,3-dimethyl-glutaryl-(S)-valine] ester] |  |  |  |  |  |  |  |  | Cmax ([1]; plasma, cynomolgus monkey, oral gavage of prodrug, prodrug level, BLQ = below 0.5 ng/mL, read-out: Monkey Cmax (plasma prodrug levels, in brackets)): 43 ng/mL; Cmax ([2]; dog, oral gavage of prodrug): 116 ng/mL; systemic levels of the prodrug ([2]; oral gavage): good systemic levels of the prodrug
CCC1(c2cccc(OC(=O)/C=C/C(=O)N[C@H](C(=O)O)C(C)C)c2)CCCCN(C)C1 (stereo partly drawn) [Meptazinol-[fumaryl-(S)-valine] ester] |  |  |  |  |  |  |  |  | Monkey Cmax (plasma prodrug levels, in brackets) [1, 5]: BLQ; Dog Cmax (plasma prodrug levels, in brackets) ([2]; dog, oral gavage of prodrug): BLQ
COc1ccc2c3c1O[C@H]1C(OC(=O)CCC(=O)N4CCC[C@H]4C(=O)O)=CC[C@@]4(O)[C@@H](C2)N(C)CC[C@]314 [Oxycodone succinyl proline ester] | 20.8% | 20.1 (±4.60) ng/mL | 3.4 (±0.9) h. | 75.2 (±13.7) h. * ng/mL | 98% | 100% | 96% | 80% | 
CC[C@H](C)[C@H](NC(=O)CCCC(=O)OC1=CC[C@@]2(O)[C@H]3Cc4ccc(OC)c5c4[C@@]2(CCN3C)[C@H]1O5)C(=O)O [Oxycodone-Glutaryl-Ile Enol Ester, oxycodone-[glutaryl-(S)-isoleucine]enol ester] | 37.4% | 46.8 (±15.0) ng/mL | 2.8 (±0.2) h. | 135.7 (±27.9) h. * ng/mL | 98% | 100% | 80% | 80% | 
COc1ccc2c3c1O[C@H]1C(OC(=O)CCCC(=O)N[C@H](C(=O)O)C(C)C)=CC[C@@]4(O)[C@@H](C2)N(C)CC[C@]314 [Oxycodone-Glutaryl-Val Enol Ester, oxycodone-[glutaryl-(S)-valine] enol ester] |  |  | 2.9 (±0.3) h. |  | 98% | 100% | 87% | 75% | 
CC[C@H](C)[C@H](NC(=O)CCC(=O)OC1=CC[C@@]2(O)[C@H]3Cc4ccc(OC)c5c4[C@@]2(CCN3C)[C@H]1O5)C(=O)O [Oxycodone-Succinyl-Ile Enol Ester, oxycodone-[succinyl-(S)-isoleucine] enol ester] | 36.0% | 57.9 (±8.7) ng/mL | 1.6 (±0.4) h. | 130.6 (±25.6) h. * ng/mL | 98% | 100% | 91% | 66% | 
COc1ccc2c3c1OC1C(OC(=O)CCC(=O)N[C@@H](CC(C)C)C(=O)O)=CC[C@@]4(O)[C@@H](C2)N(C)CC[C@]314 (stereo partly drawn) [Oxycodone-Succinyl-Leu Enol Ester, oxycodone-[succinyl-(S)-leucine]enol ester] | 39.3% | 60.9 (±15.0) ng/mL | 1.9 (±0.2) h. | 142.5 (±28.4) h. * ng/mL | 98% | 100% | 78% | 68% | 
COc1ccc2c3c1OC1C(OC(=O)CCC(=O)N[C@@H](CCSC)C(=O)O)=CC[C@@]4(O)[C@@H](C2)N(C)CC[C@]314 (stereo partly drawn) [Oxycodone-Succinyl-Met Enol Ester, oxycodone-[succinyl-(S)-methionine]enol ester] | 49.8% | 68.3 (±21.1) ng/mL | 2.3 (±0.8) h. | 180.6 (±37.7) h. * ng/mL | 99% | 100% | 84% | 58% | 
COc1ccc2c3c1O[C@H]1C(OC(=O)CCC(=O)N[C@@H](Cc4ccccc4)C(=O)O)=CC[C@@]4(O)[C@@H](C2)N(C)CC[C@]314 [Oxycodone-Succinyl-Phe Enol Ester, oxycodone-[succinyl-(S)-phenylalanine]enol ester] |  |  |  |  | 99% | 100% | 3% | 65% | 

— patent publication US20100286186A1, “NOVEL DICARBOXYLIC ACID LINKED AMINO ACID AND PEPTIDE PRODRUGS OF OPIOIDS AND USES THEREOF” (Shire LLC, priority 2009, published 2010)
